Measurements taken from patent publication US20140024662A1, “COMPOUNDS, SCREENS, AND METHODS OF TREATMENT” (Shanghai Institute of Organic Chemistry, priority 2006, published 2014).
“Also recorded” adds a separate entry of the source. Like-named read-outs stand apart in the source and are kept apart here.

System: FADD-deficient Jurkat cells
Test: necroptosis assay: FADD-deficient Jurkat cells treated with TNFα, cell viability
Type: cell-based, human
Conditions: for activity in the necroptosis assay, in words / Max Prot: FADD-deficient Jurkat cells treated with TNFα; for EC50: effective concentration for half-maximum response, inhibition of necroptosis in FADD-deficient Jurkat cells treated with TNFα; for Max Prot: max viability obtained in the presence of a compound; call rule not given here
From the text: Herein we describe the structure activity analysis of Nec-5 analogs.

Row | SMILES | EC50 | EC50 (read-out: EC50) [nM] | Max Prot [%] | further results
1 | CCCc1sc2nc(SCC#N)n(-c3ccc(OC)cc3)c(=O)c2c1C [Compound 69] | inactive | – | – | activity in the necroptosis assay, in words: inactive
2 | COc1ccc(-n2c(SCC#N)nc3sc(C(C)C)c(C)c3c2=O)cc1 [Compound 70] | inactive | – | – | activity in the necroptosis assay, in words: inactive
3 | CCCCCCCCCCCCCCc1sc2nc(SCC#N)n(-c3ccc(OC)cc3)c(=O)c2c1C [Compound 71] | inactive | – | – | –
4 | CCc1c(C)sc2nc(SCC#N)n(-c3ccc(OC)cc3)c(=O)c12 [Compound 72] | – | 1080 | 100 | activity in the necroptosis assay, in words: preserved activity to a significant extent
5 | COc1ccc(-n2c(SCC#N)nc3sc4c(c3c2=O)CCC4)cc1 [Compound 73] | – | 450 | 100 | activity in the necroptosis assay, in words: retained most of the activity; also recorded: showed activity; also recorded: exhibited a certain degree of activity
6 | COc1ccc(-n2c(SCC#N)nc3sc4c(c3c2=O)CCCCC4)cc1 [Compound 74] | – | 960 | 83 | activity in the necroptosis assay, in words: less active; also recorded: exhibited a certain degree of activity
7 | COc1ccc(-n2c(SCC#N)nc3sc4ccccc4c3c2=O)cc1 [Compound 76] | – | 180 | 83.3 | activity in the necroptosis assay, in words: retained most of the activity; also recorded: showed substantial activity; also recorded: showed good activity; also recorded: potent inhibitor; also recorded: exhibited a certain degree of activity
8 | CCN1CCc2c(sc3nc(SCC#N)n(-c4ccc(OC)cc4)c(=O)c23)C1 [Compound 77] | inactive | – | – | activity in the necroptosis assay, in words: essentially inactive
9 | COc1ccc(-n2c(SCC#N)nc3sc4c(c3c2=O)CCN(C(C)C)C4)cc1 [Compound 78] | inactive | – | – | activity in the necroptosis assay, in words: essentially inactive
10 | COc1ccc(-n2c(SC)nc3sccc3c2=O)cc1 [Compound 79] | inactive | – | – | –
11 | COc1ccc(-n2c(SC)nc3scc(C)c3c2=O)cc1 [Compound 80] | inactive | – | – | –
12 | COc1ccc(-n2c(SC)nc3sc(C)c(C)c3c2=O)cc1 [Compound 81] | inactive | – | – | –
13 | CCc1c(C)sc2nc(SC)n(-c3ccc(OC)cc3)c(=O)c12 [Compound 82] | inactive | – | – | –
14 | CCc1sc2nc(SC)n(-c3ccc(OC)cc3)c(=O)c2c1C [Compound 83] | inactive | – | – | –
15 | CCCc1sc2nc(SC)n(-c3ccc(OC)cc3)c(=O)c2c1C [Compound 84] | inactive | – | – | –
16 | COc1ccc(-n2c(SC)nc3sc(C(C)C)c(C)c3c2=O)cc1 [Compound 85] | inactive | – | – | –
17 | CCCCCCCCCCCCCCc1sc2nc(SC)n(-c3ccc(OC)cc3)c(=O)c2c1C [Compound 86] | inactive | – | – | –
18 | COc1ccc(-n2c(SC)nc3sc4c(c3c2=O)CCC4)cc1 [Compound 87] | – | 240 | 97.0 | activity in the necroptosis assay, in words: displayed higher activity than each change separately enacted
19 | COc1ccc(-n2c(SC)nc3sc4c(c3c2=O)CCCCC4)cc1 [Compound 88] | inactive | – | – | activity in the necroptosis assay, in words: lack of activity
20 | COc1ccc(-n2c(SC)nc3sc4ccccc4c3c2=O)cc1 [Compound 90] | – | 240 | 77 | activity in the necroptosis assay, in words: potent inhibitor
21 | CCN1CCc2c(sc3nc(SC)n(-c4ccc(OC)cc4)c(=O)c23)C1 [Compound 91] | inactive | – | – | –
22 | COc1ccc(-n2c(SC)nc3sc4c(c3c2=O)CCN(C(C)C)C4)cc1 [Compound 92] | inactive | – | – | –
23 | CCSc1nc2sc3c(c2c(=O)n1-c1ccc(OC)cc1)CCC3 [Compound 93] | inactive | – | – | –

Row | SMILES | EC50 | EC50 (read-out: EC50) [nM] | Max Prot [%] | further results
24 | CCCSc1nc2sc3c(c2c(=O)n1-c1ccc(OC)cc1)CCC3 [Compound 94] | inactive | – | – | –
25 | CCCCSc1nc2sc3c(c2c(=O)n1-c1ccc(OC)cc1)CCC3 [Compound 95] | inactive | – | – | –
26 | CCCCCSc1nc2sc3c(c2c(=O)n1-c1ccc(OC)cc1)CCC3 [Compound 96] | inactive | – | – | –
27 | C=CCSc1nc2sc3c(c2c(=O)n1-c1ccc(OC)cc1)CCC3 [Compound 97] | inactive | – | – | –
28 | C#CCSc1nc2sc3c(c2c(=O)n1-c1ccc(OC)cc1)CCC3 [Compound 98] | – | 2490 | 63.4 | –
29 | COc1ccc(-n2c(SCc3ccccc3)nc3sc4c(c3c2=O)CCC4)cc1 [Compound 99] | inactive | – | – | –
30 | COc1ccc(-n2c(SCc3ccc([N+](=O)[O-])cc3)nc3sc4c(c3c2=O)CCC4)cc1 [Compound 100] | inactive | – | – | –
31 | COc1ccc(-n2c(SCC(C)=O)nc3sc4c(c3c2=O)CCC4)cc1 [Compound 101] | inactive | – | – | –
32 | COc1ccc(-n2c(SC[N+](=O)[O-])nc3sc4c(c3c2=O)CCC4)cc1 [Compound 102] | inactive | – | – | –
33 | COc1ccc(-n2c(SCCO)nc3sc4c(c3c2=O)CCC4)cc1 [Compound 103] | – | 7140 | 100 | –
34 | C#CCSc1nc2sccc2c(=O)n1-c1ccc(OC)cc1 [Compound 104] | inactive | – | – | –
35 | C#CCSc1nc2scc(C)c2c(=O)n1-c1ccc(OC)cc1 [Compound 105] | inactive | – | – | –
36 | C#CCSc1nc2sc(C)c(C)c2c(=O)n1-c1ccc(OC)cc1 [Compound 106] | – | 4860 | 90.3 | activity in the necroptosis assay, in words: possess some activity
37 | C#CCSc1nc2sc(CC)c(C)c2c(=O)n1-c1ccc(OC)cc1 [Compound 107] | inactive | – | – | –
38 | C#CCSc1nc2sc(CCC)c(C)c2c(=O)n1-c1ccc(OC)cc1 [Compound 108] | inactive | – | – | –
39 | C#CCSc1nc2sc3c(c2c(=O)n1-c1ccc(OC)cc1)CCCCC3 [Compound 109] | inactive | – | – | –
40 | CCSc1nc2sc(C)c(C)c2c(=O)n1-c1ccc(OC)cc1 [Compound 110] | inactive | – | – | activity in the necroptosis assay, in words: inactive
41 | CCSc1nc2sc(CC)c(C)c2c(=O)n1-c1ccc(OC)cc1 [Compound 111] | inactive | – | – | –
42 | CCSc1nc2sc3c(c2c(=O)n1-c1ccc(OC)cc1)CCCCC3 [Compound 112] | inactive | – | – | –
43 | COc1ccc(-n2c(SCCC#N)nc3sc(C)c(C)c3c2=O)cc1 [Compound 113] | inactive | – | – | –
44 | COc1ccc(-n2c(SCCO)nc3sc(C)c(C)c3c2=O)cc1 [Compound 114] | – | 7260 | 78 | activity in the necroptosis assay, in words: possess some activity
45 | CCc1sc2nc(SCCO)n(-c3ccc(OC)cc3)c(=O)c2c1C [Compound 115] | inactive | – | – | –
46 | CCCc1sc2nc(SCCO)n(-c3ccc(OC)cc3)c(=O)c2c1C [Compound 116] | inactive | – | – | –

Row | SMILES | EC50 | EC50 (read-out: EC50) [nM] | Max Prot [%] | further results
47 | CCCc1sc2nc(SCC)n(-c3ccc(OC)cc3)c(=O)c2c1C [Compound 117] | inactive | – | – | –
48 | COc1ccc(-n2c(SCC(=O)O)nc3sc(C)c(C)c3c2=O)cc1 [Compound 118] | inactive | – | – | –
49 | Cc1sc2nc(SCC#N)n(-c3ccc(F)cc3)c(=O)c2c1C [Compound 119] | – | 4430 | 87.6 | –
50 | CCc1sc2nc(SCC#N)n(-c3ccc(F)cc3)c(=O)c2c1C [Compound 120] | inactive | – | – | –
51 | N#CCSc1nc2sc3c(c2c(=O)n1-c1ccc(F)cc1)CCC3 [Compound 121] | – | 890 | 88.7 | –
52 | N#CCSc1nc2sc3c(c2c(=O)n1-c1ccc(F)cc1)CCCCC3 [Compound 122] | inactive | – | – | activity in the necroptosis assay, in words: completely lacked activity
53 | CSc1nc2sc(C)c(C)c2c(=O)n1-c1ccc(F)cc1 [Compound 123] | – | 2600 | 69.2 | –
54 | CCc1sc2nc(SC)n(-c3ccc(F)cc3)c(=O)c2c1C [Compound 124] | inactive | – | – | –
55 | CSc1nc2sc3c(c2c(=O)n1-c1ccc(F)cc1)CCC3 [Compound 125] | – | 3000 | 95 | –
56 | Cc1sc2nc(SCC#N)n(-c3ccc4c(c3)OCO4)c(=O)c2c1C [Compound 127] | – | 1650 | 100 | –
57 | CCc1c(C)sc2nc(SCC#N)n(-c3ccc4c(c3)OCO4)c(=O)c12 [Compound 128] | – | 1900 | 100 | –
58 | N#CCSc1nc2sc3c(c2c(=O)n1-c1ccc2c(c1)OCO2)CCC3 [Compound 129] | – | 1180 | 100 | –
59 | CSc1nc2sc(C)c(C)c2c(=O)n1-c1ccc2c(c1)OCO2 [Compound 130] | – | 1110 | 67.0 | –
60 | CCc1c(C)sc2nc(SC)n(-c3ccc4c(c3)OCO4)c(=O)c12 [Compound 131] | inactive | – | – | activity in the necroptosis assay, in words: inactive
61 | CSc1nc2sc3c(c2c(=O)n1-c1ccc2c(c1)OCO2)CCC3 [Compound 132] | inactive | – | – | activity in the necroptosis assay, in words: inactive
62 | N#CCSc1nc2sc3c(c2c(=O)n1-c1ccc2c(c1)OCCO2)CCC3 [Compound 133] | – | 250 | 100 | –
63 | N#CCSc1nc2sc3c(c2c(=O)n1-c1ccc2c(c1)OCCO2)CCCC3 [Compound 134] | – | 220 | 100 | –
64 | N#CCSc1nc2sc3ccccc3c2c(=O)n1-c1ccc2c(c1)OCCO2 [Compound 135] | – | 150 | 100 | increase in activity versus para-methoxy (R5 ethylene dioxy compared with para-methoxy): ~2 fold
65 | Cc1sc2nc(SCC#N)n(-c3ccc4c(c3)OCCO4)c(=O)c2c1C [Compound 136] | – | 250 | 100 | –
66 | Cc1ccc(-n2c(SCC#N)nc3sc(C)c(C)c3c2=O)cc1C [Compound 137] | – | 2790 | 90.7 | activity in the necroptosis assay, in words: showed higher activity than compound (43)
67 | Cc1ccc(-n2c(SCC#N)nc3sc4c(c3c2=O)CCC4)cc1C [Compound 139] | inactive | – | – | activity in the necroptosis assay, in words: essentially inactive
68 | CSc1nc2sc(C)c(C)c2c(=O)n1-c1ccc(C)c(C)c1 [Compound 140] | inactive | – | – | –
